Like-named read-outs stand apart in the source and are kept apart here.
Tests used:
CD8^+ T cells [1] = test: Intracellular cytokine staining for IFN-γ, IL-2 and TNF-α; format: cell-based, BALB/c mice; conditions: HIV-1BaL Env-immunized mice (DNA-primed/rAd-boosted); peptide stimulation
CD8^+ T cells [2] = format: cell-based, BALB/c mice; conditions: intracellular IFN-γ

IGPGRAFYA [PA9]
proportion of triple-positive (IFN-γ, IL-2, TNF-α) CD8^+ T cells (CD8^+ T cells [1]): 46%

IGPGRAFYTT [PT10]
recall response to peptide (in words) (CD8^+ T cells [2]; mice immunized with the HIV-1IIIB vaccine): failed to respond

RGPGRAFVTI [P18I10, reference compound]
recall response to peptide (in words) (CD8^+ T cells [2]; mice primed with HIV-1BaL DNA and boosted with rAd): did not respond
